Assay results reported in BindingDB's records for doi:10.1016/s0028-3908(05)80009-7 (Universit&Eacute, 1994).
Where a SMILES comes first, the peptide text is derived from it. [ ]: non-standard residue; d: D form. ξ: configuration not given here. Ile(3ξ) = CCC(C)[C@H](N)C(=O)O

Target: T1, Pituitary adenylate cyclase-activating polypeptide (Rattus norvegicus, UniProt P13589)
T1 sequence (P13589 whole entry): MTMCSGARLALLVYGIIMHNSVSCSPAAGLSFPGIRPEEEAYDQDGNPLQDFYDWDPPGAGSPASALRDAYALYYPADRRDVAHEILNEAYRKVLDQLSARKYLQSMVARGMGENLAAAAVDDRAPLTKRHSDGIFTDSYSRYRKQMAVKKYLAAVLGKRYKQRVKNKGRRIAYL

Compared with “H-FTDSYSRYRKQMAVKKYLAAVL-NH2 [PACAP(5-27)]”, H-SYSRYRKQMAVKKYLAAVL-NH2 [PACAP(9-27)] is 2-fold higher in Ki: 1000 nM for the first, 2000 nM for the second.

`CCC(C)[C@H](NC(=O)CNC(=O)[C@H](CC(=O)O)NC(=O)[C@@H](Cc1ccccc1)NC(=O)[C@@H](N)Cc1cnc[nH]1)C(=O)N[C@@H](Cc1ccccc1)C(=O)N[C@H](C(=O)N[C@@H](CC(=O)O)C(=O)N[C@@H](CO)C(=O)N[C@@H](Cc1ccc(O)cc1)C(=O)N[C@@H](CO)C(=O)N[C@@H](CCCN=C(N)N)C(=O)N[C@@H](Cc1ccc(O)cc1)C(=O)N[C@@H](CCCN=C(N)N)C(=O)N[C@@H](CCCCN)C(=O)N[C@@H](CCC(N)=O)C(=O)N[C@@H](CCSC)C(=O)N[C@@H](C)C(=O)N[C@H](C(=O)N[C@@H](CCCCN)C(=O)N[C@@H](CCCCN)C(=O)N[C@@H](Cc1ccc(O)cc1)C(=O)N[C@@H](CC(C)C)C(=O)N[C@@H](C)C(=O)N[C@@H](C)C(=O)N[C@H](C(=O)N[C@@H](CC(C)C)C(N)=O)C(C)C)C(C)C)[C@@H](C)O` (stereo partly drawn) [[D-Phe2]PACAP-27] and `CCC(C)[C@H](N)C(=O)N[C@@H](Cc1ccccc1)C(=O)N[C@H](C(=O)N[C@@H](CC(=O)O)C(=O)N[C@@H](CO)C(=O)N[C@@H](Cc1ccc(O)cc1)C(=O)N[C@@H](CO)C(=O)N[C@@H](CCCN=C(N)N)C(=O)N[C@@H](Cc1ccc(O)cc1)C(=O)N[C@@H](CCCN=C(N)N)C(=O)N[C@@H](CCCCN)C(=O)N[C@@H](CCC(N)=O)C(=O)N[C@@H](CCSC)C(=O)N[C@@H](C)C(=O)N[C@H](C(=O)N[C@@H](CCCCN)C(=O)N[C@@H](CCCCN)C(=O)N[C@@H](Cc1ccc(O)cc1)C(=O)N[C@@H](CC(C)C)C(=O)N[C@@H](C)C(=O)N[C@@H](C)C(=O)N[C@H](C(=O)N[C@@H](CC(C)C)C(N)=O)C(C)C)C(C)C)[C@@H](C)O` (some centres not stated) [PACAP(5-27)] (H-[Ile(3ξ)]FTDSYSRYRKQMAVKKYLAAVL-NH2) are within 1.5-fold of each other in Ki: 800 nM for the first, 1000 nM for the second.

First: [C][C][C]([C])[C@H]([N]C(=O)[C][N]C(=O)[C@H]([C][C]C([O])=O)[N]C(=O)[C@@H]([N])[C][O])C(=O)[N][C@@H]([C]c1ccccc1)C(=O)[N][C@H](C(=O)[N][C@@H]([C]C([O])=O)C(=O)[N][C@@H]([C][O])C(=O)[N][C@@H]([C]c1ccc([O])cc1)C(=O)[N][C@@H]([C][O])C(=O)[N][C@@H]([C][C][C]N=C([N])[N])C(=O)[N][C@@H]([C]c1ccc([O])cc1)C(=O)[N][C@@H]([C][C][C]N=C([N])[N])C(=O)[N][C@@H]([C][C][C][C][N])C(=O)[N][C@@H]([C][C]C([N])=O)C(=O)[N][C@@H]([C][C]S[C])C(=O)[N][C@@H]([C])C(=O)[N][C@@H]([C]([C])[C])C(=O)[N][C@@H]([C][C][C][C][N])C(=O)[N][C@@H]([C][C][C][C][N])C(=O)[N][C@@H]([C]c1ccc([O])cc1)C(=O)[N][C@@H]([C][C]([C])[C])C(=O)[N][C@@H]([C])C(=O)[N][C@@H]([C])C(=O)[N][C@@H]([C]([C])[C])C(=O)[N][C@@H]([C][C]([C])[C])C([N])=O)[C@@H]([C])[O] [PACAP(2-27)]
Second: CCC(C)[C@H](NC(=O)CN)C(=O)N[C@@H](Cc1ccccc1)C(=O)N[C@H](C(=O)N[C@@H](CC(=O)O)C(=O)N[C@@H](CO)C(=O)N[C@@H](Cc1ccc(O)cc1)C(=O)N[C@@H](CO)C(=O)N[C@@H](CCCN=C(N)N)C(=O)N[C@@H](Cc1ccc(O)cc1)C(=O)N[C@@H](CCCN=C(N)N)C(=O)N[C@@H](CCCCN)C(=O)N[C@@H](CCC(N)=O)C(=O)N[C@@H](CCSC)C(=O)N[C@@H](C)C(=O)N[C@H](C(=O)N[C@@H](CCCCN)C(=O)N[C@@H](CCCCN)C(=O)N[C@@H](Cc1ccc(O)cc1)C(=O)N[C@@H](CC(C)C)C(=O)N[C@@H](C)C(=O)N[C@@H](C)C(=O)N[C@H](C(=O)N[C@@H](CC(C)C)C(=O)NCC(=O)N[C@@H](CCCCN)C(=O)N[C@@H](CCCN=C(N)N)C(=O)N[C@@H](Cc1ccc(O)cc1)C(=O)N[C@@H](CCCCN)C(=O)N[C@@H](CCC(N)=O)C(=O)N[C@@H](CCCN=C(N)N)C(=O)N[C@H](C(=O)N[C@@H](CCCCN)C(=O)N[C@@H](CC(N)=O)C(=O)N[C@@H](CCCCN)C(N)=O)C(C)C)C(C)C)C(C)C)[C@@H](C)O (some centres not stated) [PACAP(4-38)] (H-G[Ile(3ξ)]FTDSYSRYRKQMAVKKYLAAVLGKRYKQRVKNK-NH2)
The Ki of the first is 1.5-fold higher: 30 nM for the first, 20 nM for the second.

Going from `CC[C@H](C)[C@H](NC(=O)CNC(=O)[C@H](CC(=O)O)NC(=O)[C@@H](C)NC(=O)[C@@H](N)Cc1cnc[nH]1)C(=O)N[C@@H](Cc1ccccc1)C(=O)N[C@H](C(=O)N[C@@H](CC(=O)O)C(=O)N[C@@H](CO)C(=O)N[C@@H](Cc1ccc(O)cc1)C(=O)N[C@@H](CO)C(=O)N[C@@H](CCCN=C(N)N)C(=O)N[C@@H](Cc1ccc(O)cc1)C(=O)N[C@@H](CCCN=C(N)N)C(=O)N[C@@H](CCCCN)C(=O)N[C@@H](CCC(N)=O)C(=O)N[C@@H](CCSC)C(=O)N[C@@H](C)C(=O)N[C@H](C(=O)N[C@@H](CCCCN)C(=O)N[C@@H](CCCCN)C(=O)N[C@@H](Cc1ccc(O)cc1)C(=O)N[C@@H](CC(C)C)C(=O)N[C@@H](C)C(=O)N[C@@H](C)C(=O)N[C@H](C(=O)N[C@@H](CC(C)C)C(N)=O)C(C)C)C(C)C)[C@@H](C)O` [[DAla2]PACAP(1-27)] to “H-FTDSYSRYRKQMAVKKYLAAVLGKRYKQRV-NH2 [PACAP(6-35)]”, the Ki rises from 8 nM to 300 nM (38-fold).

First: CNC(=O)[C@H](Cc1ccc(O)cc1)NC(=O)[C@H](CCCN=C(N)N)NC(=O)[C@H](CCCCN)NC(=O)CNC(=O)[C@H](CC(C)C)NC(=O)[C@@H](NC(=O)[C@H](C)NC(=O)[C@H](C)NC(=O)[C@H](CC(C)C)NC(=O)[C@H](Cc1ccc(O)cc1)NC(=O)[C@H](CCCCN)NC(=O)[C@H](CCCCN)NC(=O)[C@@H](NC(=O)[C@H](C)NC(=O)[C@H](CCSC)NC(=O)[C@H](CCC(N)=O)NC(=O)[C@H](CCCCN)NC(=O)[C@H](CCCN=C(N)N)NC(=O)[C@H](Cc1ccc(O)cc1)NC(=O)[C@H](CCCN=C(N)N)NC(=O)[C@H](CO)NC(=O)[C@H](Cc1ccc(O)cc1)NC(=O)[C@H](CO)NC(=O)[C@H](CC(=O)O)NC(=O)[C@@H](NC(=O)[C@@H](N)Cc1ccccc1)[C@@H](C)O)C(C)C)C(C)C [PACAP(6-31)] (H-FTDSYSRYRKQMAVKKYLAAVLGKRY-NHMe)
Second: CSCC[C@H](NC(=O)[C@H](CCC(N)=O)NC(=O)[C@H](CCCCN)NC(=O)[C@H](CCCNC(=N)N)NC(=O)[C@H](Cc1ccc(O)cc1)NC(=O)[C@H](CCCNC(=N)N)NC(=O)[C@H](CO)NC(=O)[C@H](Cc1ccc(O)cc1)NC(=O)[C@H](CO)NC(=O)[C@H](CC(=O)O)NC(=O)[C@@H](NC(=O)[C@@H](N)Cc1ccccc1)[C@@H](C)O)C(=O)N[C@@H](C)C(=O)N[C@H](C(=O)N[C@@H](CCCCN)C(=O)N[C@@H](CCCCN)C(=O)N[C@@H](Cc1ccc(O)cc1)C(=O)N[C@@H](CC(C)C)C(=O)N[C@@H](C)C(=O)N[C@@H](C)C(=O)N[C@H](C(=O)N[C@@H](CC(C)C)C(=O)NCC(=O)N[C@@H](CCCCN)C(=O)N[C@@H](CCCNC(=N)N)C(=O)N[C@@H](Cc1ccc(O)cc1)C(=O)N[C@@H](CCCCN)C(=O)N[C@@H](CCC(N)=O)C(=O)N[C@@H](CCCNC(=N)N)C(=O)N[C@H](C(=O)N[C@@H](CCCCN)C(=O)N[C@@H](CC(N)=O)C(=O)N[C@@H](CCCCN)C(N)=O)C(C)C)C(C)C)C(C)C
The Ki of the first is 1.5-fold higher: 3 nM for the first, 2 nM for the second. The second binds more tightly here.

First: CC[C@H](C)[C@H](NC(=O)CNC(=O)[C@H](CC(=O)O)NC(=O)[C@H](CO)NC(=O)[C@@H](N)Cc1ccccc1)C(=O)N[C@@H](Cc1ccccc1)C(=O)N[C@H](C(=O)N[C@@H](CC(=O)O)C(=O)N[C@@H](CO)C(=O)N[C@@H](Cc1ccc(O)cc1)C(=O)N[C@@H](CO)C(=O)N[C@@H](CCCN=C(N)N)C(=O)N[C@@H](Cc1ccc(O)cc1)C(=O)N[C@@H](CCCN=C(N)N)C(=O)N[C@@H](CCCCN)C(=O)N[C@@H](CCC(N)=O)C(=O)N[C@@H](CCSC)C(=O)N[C@@H](C)C(=O)N[C@H](C(=O)N[C@@H](CCCCN)C(=O)N[C@@H](CCCCN)C(=O)N[C@@H](Cc1ccc(O)cc1)C(=O)N[C@@H](CC(C)C)C(=O)N[C@@H](C)C(=O)N[C@@H](C)C(=O)N[C@H](C(=O)N[C@@H](CC(C)C)C(N)=O)C(C)C)C(C)C)[C@@H](C)O [[Phe1]PACAP(1-27)]
Second: CCC(C)[C@H](NC(=O)CNC(=O)[C@H](CC(=O)O)NC(=O)[C@H](Cc1ccccc1)NC(=O)[C@@H](N)Cc1cnc[nH]1)C(=O)N[C@@H](Cc1ccccc1)C(=O)N[C@H](C(=O)N[C@@H](CC(=O)O)C(=O)N[C@@H](CO)C(=O)N[C@@H](Cc1ccc(O)cc1)C(=O)N[C@@H](CO)C(=O)N[C@@H](CCCN=C(N)N)C(=O)N[C@@H](Cc1ccc(O)cc1)C(=O)N[C@@H](CCCN=C(N)N)C(=O)N[C@@H](CCCCN)C(=O)N[C@@H](CCC(N)=O)C(=O)N[C@@H](CCSC)C(=O)N[C@@H](C)C(=O)N[C@H](C(=O)N[C@@H](CCCCN)C(=O)N[C@@H](CCCCN)C(=O)N[C@@H](Cc1ccc(O)cc1)C(=O)N[C@@H](CC(C)C)C(=O)N[C@@H](C)C(=O)N[C@@H](C)C(=O)N[C@H](C(=O)N[C@@H](CC(C)C)C(=O)NCC(=O)N[C@@H](CCCCN)C(=O)N[C@@H](CCCN=C(N)N)C(=O)N[C@@H](Cc1ccc(O)cc1)C(=O)N[C@@H](CCCCN)C(=O)N[C@@H](CCC(N)=O)C(=O)N[C@@H](CCCN=C(N)N)C(=O)N[C@H](C(=O)N[C@@H](CCCCN)C(=O)N[C@@H](CC(N)=O)C(=O)N[C@@H](CCCCN)C(N)=O)C(C)C)C(C)C)C(C)C)[C@@H](C)O (some centres not stated) [[Phe2]PACAP(1-38)] (H-HFDG[Ile(3ξ)]FTDSYSRYRKQMAVKKYLAAVLGKRYKQRVKNK-NH2)
The Ki of the first is 300-fold higher: 600 nM for the first, 2 nM for the second.
